Test results from patent publication US5270047A, “Local delivery of dipyridamole for the treatment of proliferative diseases” (priority 1991, dated 1993).

Key:
[1] = test system: balloon-injured left common carotid arteries; assay: Effect of local adventitial dipyridamole upon intimal thickening after balloon injury of the left common carotid artery; format: in vivo, male Sprague-Dawley rats; details: 600 μg/day, fourteen days
Protocol: Balloon injury to the left common carotid arteries of male Sprague-Dawley rats (350-400 g) was accomplished by three passes of an inflated 2F Fogarty balloon catheter as described by Clowes et al., Lab Invest. 49:208-215 (1983). Animals were anesthetized with Ketamine (80 mg/kg, intramuscular) and Rompun (16 mg/kg, intramuscular). Entry of the balloon catheter to the left common carotid artery was made via a nick in the external carotid artery, which was tied off at the end of the surgical procedure. Continuous local delivery of dipyridamole was accomplished by means of a minosmotic pump implanted subcutaneously in the back of the rat. […]
Fourteen days post surgery, animals were anesthetized (vide supra) and perfused through the abdominal aorta in a retrograde manner at physiological pressure with a zinc formalin fixative (Anatech LTD., Battle Creek, Mich.). […] Three adjacent cross sections (5 μm thick) of each vessel were cut, stained with hematoxylin and eosin, and cross-sectional intimal areas quantitated with an image analyzer (Quantimet 970, Cambridge Inst., Cambridge, UK).
The difference between intimal areas of drug-treated vs. control groups were analyzed for statistical significance using Student's t-test as described in Tallarida et al., Manual of Pharmacologic Calculations with Computer Programs, Springer-Verlag, New York, 1981, p. […]

[2] = test system: Smooth muscle cells from rabbit aorta; assay: Effect of serum concentration on inhibition of PDGF-induced DNA synthesis (3H thymidine incorporation) by dipyridamole; format: cell-based; details: for inhibition at 0.04 µg/mL / inhibition at 0.08 µg/mL / inhibition at 0.15 µg/mL / inhibition at 0.3 µg/mL / inhibition at 0.6 µg/mL / inhibition at 1.2 µg/mL / inhibition at 2.5 µg/mL: Oryctolagus cuniculus, 24 h, 40 ng/ml PDGF; for inhibition at 0.04 µg/mL: dipyridamole 0.04 μg/ml; for inhibition at 0.08 µg/mL: dipyridamole 0.08 μg/ml; for inhibition at 0.15 µg/mL: dipyridamole 0.15 μg/ml; for inhibition at 0.3 µg/mL: dipyridamole 0.3 μg/ml; for inhibition at 0.6 µg/mL: dipyridamole 0.6 μg/ml; for inhibition at 1.2 µg/mL: dipyridamole 1.2 μg/ml; for inhibition at 2.5 µg/mL: dipyridamole 2.5 μg/ml
Protocol: Serum reduces the effectiveness of systemically administered dipyridamole as an inhibitor of cell proliferation. […] Growth arrested, confluent cultures in 96 well microtiter plates were incubated in medium containing 1%, 5% or 20% serum (Hyclone Laboratories, Logan, Utah), 2 mM L-glutamine, 100 U/ml penicillin, 100 μg/ml streptomycin, 40 ng/ml PDGF (Genzyme, Cambridge, Mass.), 1 μci/ml ^3 H thymidine (DuPont, Boston, Mass.) and indicated concentrations of dipyridamole (Sigma Chemical, St. Louis, Mo.). Cells were incubated at 37° C. for 24 hours under 5% CO2 /95% air. At the end of 24 hours, cells were fixed in methanol and DNA synthesis was determined by ^3 H thymidine incorporation as described in Bonin et al., Exp. Cell Res. 181, 475-482 (1989).

[3] = test system: Smooth muscle cells from rabbit aorta; assay: Inhibition of DNA synthesis (3H thymidine incorporation) induced by PDGF, FGF or EGF; format: cell-based; details: for inhibition at 0.08 µg/mL / inhibition at 0.15 µg/mL / inhibition at 0.32 µg/mL / inhibition at 0.64 µg/mL / inhibition at 1.2 µg/mL / inhibition at 2.5 µg/mL: Oryctolagus cuniculus, Platelet, 24 h, 1% platelet poor plasma; for inhibition at 0.08 µg/mL: dipyridamole 0.08 μg/ml; for inhibition at 0.15 µg/mL: dipyridamole 0.15 μg/ml; for inhibition at 0.32 µg/mL: dipyridamole 0.32 μg/ml; for inhibition at 0.64 µg/mL: dipyridamole 0.64 μg/ml; for inhibition at 1.2 µg/mL: dipyridamole 1.2 μg/ml; for inhibition at 2.5 µg/mL: dipyridamole 2.5 μg/ml
Protocol: Dipyridamole inhibits smooth muscle cell proliferation induced by multiple growth factors. Smooth muscle cells from rabbit aorta (derived by explant method) were seeded in 96 well tissue culture plates in DMEM containing 10% fetal bovine serum, 2 mM L-glutamine, 100 U/ml penicillin and 100 μg/ml streptomycin. Growth arrested, confluent cultures in 96 well microtiter plates were incubated in medium containing 1% platelet poor plasma, 2 mM L-glutanime, 100 U/ml penicillin, 100 μg/ml streptomycin, 20 ng/ml PDGF, 3 ng/ml EGF (Genzyme), 3 ng/ml FGF (Genzyme), 1 μci/ml ^3 H thymidine and indicated concentrations of dipyridamole. Cells were incubated at 37° C. for 24 hours under 5% CO2 /95% air. At the end of 24 hours, cells were fixed in methanol. DNA synthesis was determined by ^3 H thymidine incorporation as previously described.

[4] = test system: balloon-injured rat carotid arteries; assay: Effect of systemic (dietary) dipyridamole upon intimal thickening after balloon injury of the left common carotid artery; format: in vivo, male Sprague-Dawley rats; details: two weeks; for Area of Intimal Thickening: control 0.120 ± 0.014
Protocol: Balloon injury to the left common carotid arteries of male Sprague-Dawley rats (350-400 g) was accomplished by three passes of an inflated 2F Fogarty balloon catheter (Baxter Healthcare, McGaw Park, Ill.) as described by Clowes et al., Lab Invest. 49:208-215 (1983). Animals were anesthetized with Ketamine (80 mg/kg, intramuscular, Aveco, Ft. Dodge, Iowa) and Rompun (16 mg/kg, intramuscular, Mobay Corp., Shawnee, Kans.). Entry of the balloon catheter to the left common carotid artery was made via a nick in the external carotid artery, which was tied off at the end of the surgical procedure. Dipyridamole was systemically administered for two weeks (0.03 and 0.10% wt/wt, as an admixture in the diet, equivalent to approximately 30 and 100 mg/kg/day, respectively).

Balb/c3T3 fibroblasts = assay: Inhibition of fibroblast growth (Coulter cell counting); format: cell-based
Protocol: Cells were then transferred to above medium containing indicated concentrations of dipyridamole. After three days cell growth was determined by counting using a ZM Coulter counter (Coulter Diagnostic, Inc.).

[5] = 0.03% in diet wt/wt (approximately 30 mg/kg/day)
[6] = 0.10% in diet wt/wt (approximately 100 mg/kg/day)

OCCN(CCO)c1nc(N2CCCCC2)c2nc(N(CCO)CCO)nc(N3CCCCC3)c2n1 [Dipyridamole, 2,6-bis(diethanolamino)-4,8-dipiperidinopyrimido[5,4-d]pyrimidine]
Area of Intimal Thickening (% of control) ([1]; P < 0.05 vs. control): 67.4 % of control
Area of Intimal Thickening ([1]; vehicle 0.129 ± 0.013, P < 0.05 vs. control): 0.087 ± 0.011 mm^2
effect of serum on antiproliferative activity ([2]; 1%, 5% or 20% serum): increasing concentrations of serum attenuate the growth inhibitory effects of dipyridamole
inhibition at 0.04 µg/mL ([2]; 1% serum): 59%
inhibition at 0.08 µg/mL ([2]; 1% serum): 70%
inhibition at 0.15 µg/mL ([2]; 1% serum): 79%
inhibition at 0.3 µg/mL ([2]; 1% serum): 80%
inhibition at 0.6 µg/mL ([2]; 1% serum): 86%
inhibition at 1.2 µg/mL ([2]; 1% serum): 90%
inhibition at 2.5 µg/mL ([2]; 1% serum): 93%
inhibition at 0.04 µg/mL ([2]; 5% serum): 52%
inhibition at 0.08 µg/mL ([2]; 5% serum): 53%
inhibition at 0.15 µg/mL ([2]; 5% serum): 60%
inhibition at 0.3 µg/mL ([2]; 5% serum): 71%
inhibition at 0.6 µg/mL ([2]; 5% serum): 80%
inhibition at 1.2 µg/mL ([2]; 5% serum): 87%
inhibition at 2.5 µg/mL ([2]; 5% serum): 92%
inhibition at 0.04 µg/mL ([2]; 20% serum): 6%
inhibition at 0.08 µg/mL ([2]; 20% serum): 0%
inhibition at 0.15 µg/mL ([2]; 20% serum): 33%
inhibition at 0.3 µg/mL ([2]; 20% serum): 38%
inhibition at 0.6 µg/mL ([2]; 20% serum): 60%
inhibition at 1.2 µg/mL ([2]; 20% serum): 74%
inhibition at 2.5 µg/mL ([2]; 20% serum): 77%
inhibition at 0.08 µg/mL ([3]; EGF (3 ng/ml)): 68%
inhibition at 0.15 µg/mL ([3]; EGF (3 ng/ml)): 76%
inhibition at 0.32 µg/mL ([3]; EGF (3 ng/ml)): 85%
inhibition at 0.64 µg/mL ([3]; EGF (3 ng/ml)): 90%
inhibition at 1.2 µg/mL ([3]; EGF (3 ng/ml)): 94%
inhibition at 2.5 µg/mL ([3]; EGF (3 ng/ml)): 96%
inhibition at 0.08 µg/mL ([3]; FGF (3 ng/ml)): 67%
inhibition at 0.15 µg/mL ([3]; FGF (3 ng/ml)): 74%
inhibition at 0.32 µg/mL ([3]; FGF (3 ng/ml)): 80%
inhibition at 0.64 µg/mL ([3]; FGF (3 ng/ml)): 87%
inhibition at 1.2 µg/mL ([3]; FGF (3 ng/ml)): 92%
inhibition at 2.5 µg/mL ([3]; FGF (3 ng/ml)): 93%
inhibition at 0.08 µg/mL ([3]; PDGF (20 ng/ml)): 64%
inhibition at 0.15 µg/mL ([3]; PDGF (20 ng/ml)): 71%
inhibition at 0.32 µg/mL ([3]; PDGF (20 ng/ml)): 82%
inhibition at 0.64 µg/mL ([3]; PDGF (20 ng/ml)): 89%
inhibition at 1.2 µg/mL ([3]; PDGF (20 ng/ml)): 93%
inhibition at 2.5 µg/mL ([3]; PDGF (20 ng/ml)): 96%
inhibition of smooth muscle cell proliferation induced by growth factors ([3]; PDGF, FGF, and EGF): inhibits cell proliferation induced by PDGF, FGF, and EGF
Area of Intimal Thickening (% of control) [4, 5]: 97.6 % of control
Area of Intimal Thickening [4, 5]: 0.116 ± 0.017 mm^2
effect upon intimal thickening in the balloon-injured rat carotid arteries ([4]; 0.03 and 0.10% wt/wt in the diet): No significant effect upon intimal thickening
Area of Intimal Thickening (% of control) [4, 6]: 90.8 % of control
Area of Intimal Thickening [4, 6]: 0.109 ± 0.014 mm^2
inhibition at 1 µg/mL (Balb/c3T3 fibroblasts; Mus musculus, BALB/c3T3, 72 h, dipyridamole 1.0 μg/ml, three days, 5% fetal bovine serum): 0%
inhibition at 5 µg/mL (Balb/c3T3 fibroblasts; Mus musculus, BALB/c3T3, 72 h, dipyridamole 5.0 μg/ml, three days, 5% fetal bovine serum): 55%
inhibition at 10 µg/mL (Balb/c3T3 fibroblasts; Mus musculus, BALB/c3T3, 72 h, dipyridamole 10 μg/ml, three days, 5% fetal bovine serum): 72%
inhibition at 20 µg/mL (Balb/c3T3 fibroblasts; Mus musculus, BALB/c3T3, 72 h, dipyridamole 20 μg/ml, three days, 5% fetal bovine serum): 86%
inhibition at 40 µg/mL (Balb/c3T3 fibroblasts; Mus musculus, BALB/c3T3, 72 h, dipyridamole 40 μg/ml, three days, 5% fetal bovine serum): 95%
inhibition of proliferation of cells of mesenchyme origin (Balb/c3T3 fibroblasts; fibroblasts): inhibits proliferation of cells of mesenchyme origin
